From the NIST ThermoML archive (doi:10.1016/j.jct.2009.06.020)
± gives the expanded uncertainty stated by the source.

Legend:
[1] = for speed of sound / mass density / viscosity: 101.33 kPa, Liquid; for speed of sound: Single path-length method; for mass density: Vibrating tube method; for viscosity: Capillary tube (Ostwald / Ubbelohde) method
[2] = isobaric coefficient of expansion; conditions: 298.15 K; 101.33 kPa; Liquid; Curve Fitting Density Data
[3] = refractive index (Na D-line) (dimensionless); conditions: 101.33 kPa, Liquid, Standard Abbe refractometry

CCCCCCCCCCCCCC[P+](CCCCCC)(CCCCCC)CCCCCC.N#C[N-]C#N [tetradecyl(trihexyl)phosphonium dicyanamide]
Conditions | mass density, [1] [kg/m3] | refractive index, [3] | speed of sound, [1] [m/s] | viscosity, [1] [mPa·s]
278.15 K | 910.72 ± 3.6 | – | 1599 ± 3 | –
283.15 K | 907.58 ± 3.6 | 1.48826 ± 0.00037 | 1579 ± 3 | –
288.15 K | 904.66 ± 3.6 | 1.48667 ± 0.00037 | 1561 ± 3 | –
293.15 K | 901.76 ± 3.6 | 1.48502 ± 0.00037 | 1542 ± 3 | 562.45 ± 31
298.15 K | 898.86 ± 3.6 | 1.48337 ± 0.00037 | 1526 ± 3 | 418.33 ± 22
303.15 K | 895.98 ± 3.6 | 1.48174 ± 0.00037 | 1509 ± 3 | 312.69 ± 16
308.15 K | 893.09 ± 3.6 | 1.48008 ± 0.00037 | 1493 ± 3 | 239.97 ± 11
313.15 K | 890.26 ± 3.6 | 1.47843 ± 0.00037 | 1477 ± 3 | 186.79 ± 8.5
318.15 K | 887.46 ± 3.6 | 1.47679 ± 0.00037 | 1462 ± 3 | 145.95 ± 6.4
323.15 K | 884.65 ± 3.5 | 1.47516 ± 0.00037 | 1447 ± 3 | 116.18 ± 5
328.15 K | 881.83 ± 3.5 | 1.47352 ± 0.00037 | 1432 ± 3 | 93.8 ± 3.9
333.15 K | 879.03 ± 3.5 | 1.47189 ± 0.00037 | 1418 ± 3 | 76.14 ± 3.1
338.15 K | 876.22 ± 3.5 | 1.47024 ± 0.00037 | 1404 ± 3 | 62.63 ± 2.6
343.15 K | 873.42 ± 3.5 | 1.46848 ± 0.00037 | 1390 ± 3 | 51.99 ± 2.1

Conditions | isobaric coefficient of expansion
[2] | 0.000642 1/K

CCCC[N+]1(C)CCCC1.O=S(=O)([N-]S(=O)(=O)C(F)(F)F)C(F)(F)F
Conditions | mass density, [1] [kg/m3] | refractive index, [3] | speed of sound, [1] [m/s] | viscosity, [1] [mPa·s]
278.15 K | 1412.36 ± 5.7 | – | 1316 ± 3 | –
283.15 K | 1407.86 ± 5.7 | 1.42717 ± 0.00037 | 1303 ± 3 | –
288.15 K | 1403.45 ± 5.6 | 1.42573 ± 0.00037 | 1291 ± 3 | –
293.15 K | 1399.02 ± 5.6 | 1.4243 ± 0.00037 | 1280 ± 3 | 98.07 ± 4.1
298.15 K | 1394.59 ± 5.6 | 1.42304 ± 0.00037 | 1269 ± 3 | 76.92 ± 3.2
303.15 K | 1390.2 ± 5.6 | 1.42164 ± 0.00037 | 1258 ± 3 | 61.47 ± 2.5
308.15 K | 1385.8 ± 5.6 | 1.42021 ± 0.00037 | 1247 ± 3 | 49.94 ± 2
313.15 K | 1381.42 ± 5.5 | 1.41878 ± 0.00037 | 1236 ± 3 | 41.22 ± 1.7
318.15 K | 1377.04 ± 5.5 | 1.41736 ± 0.00037 | 1225 ± 3 | 34.32 ± 1.4
323.15 K | 1372.69 ± 5.5 | 1.41588 ± 0.00037 | 1214 ± 3 | 28.95 ± 1.2
328.15 K | 1368.35 ± 5.5 | 1.41447 ± 0.00037 | 1204 ± 3 | 24.68 ± 1
333.15 K | 1364.02 ± 5.5 | 1.413 ± 0.00037 | 1193 ± 3 | 21.23 ± 0.86
338.15 K | 1359.71 ± 5.5 | 1.4116 ± 0.00037 | 1183 ± 3 | 18.42 ± 0.75
343.15 K | 1355.41 ± 5.4 | 1.4102 ± 0.00037 | 1173 ± 3 | 16.12 ± 0.65

Conditions | Normal melting temperature [°C]
[1], Crystal, visual observation | -8.00 ± 0.5

Conditions | isobaric coefficient of expansion
[2] | 0.000633 1/K
